One series concerns Swiss albino mice. The series is described as follows: Triglyceride lowering activity in Swiss albino mice. The format is in vivo. The conditions noted are these: 3 mg/kg/day oral for 6 days. Here is the method:
Male Swiss albino mice (SAM) were obtained from NIN and housed in DRF animal house. All these animals were maintained under 12 hour light and dark cycle at 25±1° C. Animals were given standard laboratory chow SIN, Hyderabad, India) and water, ad libitun. SAM of 20-25 g body weight range and Guinea pigs of 500-700 g body weight range were used (Oliver, P., Plancke, M. O., Marzin, D., Clavey, V., Sauzieres, J and Fruchart, J. C. Effects of fenofibrate, gemfibrozil and nicotinic acid on plasma lipoprotein levels in normal and hyperlipidemic mice. Atherosclerosis. 1988. 70:107-114).
The test compounds were administered orally to Swiss albino mice at 0.3 to 30 mg/kg/day dose for 6 days. Control mice were treated with vehicle (0.25% Carboxymethylcellulose; dose 10 ml/kg). The test compounds were administered orally to Guinea pigs at 0.3 to 30 mg/kg/day dose for 6 days. Control animals were treated with vehicle (0.25% Carboxymethylcellulose; dose 5 ml/kg).
The blood samples were collected in fed state 1 hour after drug administration on 0 and 6 day of treatment. The blood was collected from the retro-orbital sinus through heparinised capillary in EDTA containing tubes. After centrifugation, plasma sample was separated for triglyceride and total cholesterol (Wieland, O. Methods of Enzymatic analysis. Bergermeyer, H. O., Ed., 1963. 211-214; Trinder, P. Ann. Clin. Biochem. 1969. 6: 24-27). Measurement of plasma triglyceride, total cholesterol and HDL were done using commercial kits (Dr. Reddy's Diagnostic Division, Hyderabad, India).
(§1) 1. Percent reduction in Blood sugar/triglycerides/total cholesterol were calculated according to the formula: [formula]

The target of another series is T1, hPPARγ1 (Homo sapiens, UniProt P37231).
T1 construct: expressed in transfected cells; host or cells: HEK-293
T1 sequence (P37231 238-503 limits assumed): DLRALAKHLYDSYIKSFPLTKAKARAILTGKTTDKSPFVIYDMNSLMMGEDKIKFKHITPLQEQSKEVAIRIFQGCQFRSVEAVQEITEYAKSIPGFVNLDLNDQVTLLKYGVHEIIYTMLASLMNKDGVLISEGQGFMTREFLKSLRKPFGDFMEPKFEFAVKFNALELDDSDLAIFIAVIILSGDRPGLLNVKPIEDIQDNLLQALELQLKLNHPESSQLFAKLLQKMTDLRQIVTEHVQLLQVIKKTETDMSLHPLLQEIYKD
The series is described as follows: Determination of hPPARγ activity (GAL4 luciferase reporter transactivation in HEK-293 cells). The format is cell-based. The conditions noted are these: compound at 1 μM, HEK-293 cells transfected with GAL4-hPPARγ1 LBD. On the procedure: Ligand binding domain of hPPARγ1 was fused to DNA binding domain of Yeast transcription factor GAL4 in eucaryotic expression vector. Using lipofectamine (Gibco BRL, USA) as transfecting reagent HEK-293 cells were transfected with this plasmid and a reporter plasmid harboring the luciferase gene driven by a GAL4 specific promoter. Compound was added at 1 μM concentration after 48 hrs of transfection and incubated overnight. Luciferase activity as a function of drug binding/activation capacity of PPARγ1 was measured using Packard Luclite kit (Packard, USA) in Packard Top Count (Ivan Sadowski, Brendan Bell, Peter Broag and Melvyn Hollis. Gene. 1992. 118: 137-141; Guide to Eukaryotic Transfections with Cationic Lipid Reagents. Life Technologies, GIBCO BRL, USA).

The target in a further series is T2, hPPARα (Homo sapiens, UniProt Q07869).
T2 construct: expressed in transfected cells; host or cells: HEK-293
T2 sequence (Q07869 239-466 limits assumed): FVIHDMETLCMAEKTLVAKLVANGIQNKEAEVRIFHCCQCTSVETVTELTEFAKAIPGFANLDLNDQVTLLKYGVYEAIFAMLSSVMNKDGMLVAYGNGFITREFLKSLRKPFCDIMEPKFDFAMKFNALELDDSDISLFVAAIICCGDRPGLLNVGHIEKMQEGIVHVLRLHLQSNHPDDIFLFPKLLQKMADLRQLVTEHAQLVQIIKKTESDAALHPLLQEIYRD
The series can be described thus: Determination of hPPARα activity (GAL4 luciferase reporter transactivation in HEK-293 cells). The format is cell-based. The settings on record: compound at 50 μM, HEK-293 cells transfected with GAL4-hPPARα LBD. On the procedure: Ligand binding domain of hPPARα was fused to DNA binding domain of Yeast transcription factor GAL4 in eucaryotic expression vector. Using superfect (Qiagen, Germany) as transfecting reagent HEK-293 cells were transfected with this plasmid and a reporter plasmid harboring the luciferase gene driven by a GAL4 specific promoter. Compound was added at different concentrations after 42 hrs of transfection and incubated overnight. Luciferase activity as a function of compound binding/activation capacity of PPARα was measured using Packard Luclite kit (Packard, USA) in Top Count (Ivan Sadowski, Brendan Bell, Peter Broag and Melvyn Hollis. Gene. 1992. 118: 137-141; Superfect Transfection Reagent Handbook. February 1997. Qiagen, Germany).
In general terms: A reporter such as luciferase makes a cellular process visible.

The subject of the next series is C57BL/KsJ-db/db mice. The series is described as follows: Blood glucose and triglyceride lowering activity in db/db mice. The format is in vivo. The conditions noted are these: 3 mg/kg oral gavage daily for 6 days, plasma 1 h after dose on day 6.
From the text: Mutation in colonies of laboratory animals and different sensitivities to dietary regimens have made the development of animal models with non-insulin dependent diabetes and hyperlipidemia associated with obesity and insulin resistance possible. Genetic models such as db/db and ob/ob (Diabetes, (1982) 31(1): 1-6) mice and zucker fa/fa rats have been developed by the various laboratories for understanding the pathophysiology of disease and testing the efficacy of new antidiabetic compounds (Diabetes, (1983) 32: 830-838; Annu. Rep. Sankyo Res. Lab. (1994). 46: 1-57). The homozygous animals, C57 BL/KsJ-db/db mice developed by Jackson Laboratory, US, are obese, hyperglycemic, hyperinsulinemic and insulin resistant (J. Clin. Invest., (1990) 85: 962-967), whereas heterozygous are lean and normoglycemic. In db/db model, mouse progressively develops insulinopenia with age, a feature commonly observed in late stages of human type II diabetes when blood sugar levels are insufficiently controlled. The state of pancreas and its course vary according to the models. Since this model resembles that of type II diabetes mellitus, the compounds of the present invention were tested for blood sugar and triglycerides lowering activities.
Male C57BL/KsJ-db/db mice of 8 to 14 weeks age, having body weight range of 35 to 60 grams, bred at Dr. Reddy's Research Foundation (DRF) animal house, were used in the experiment. The mice were provided with standard feed (National Institute of Nutrition (NIN), Hyderabad, India) and acidified water, ad libitum. The animals having more than 350 mg/dl blood sugar were used for testing. The number of animals in each group was 4.
Test compounds were suspended on 0.25% carboxymethyl cellulose and administered to test group at a dose of 0.001 mg to 30 mg/kg through oral gavage daily for 6 days. The control group received vehicle (dose 10 ml/kg). On 6th day the blood samples were collected one hour after administration of test compounds/vehicle for assessing the biological activity.
The random blood sugar and triglyceride levels were measured by collecting blood (100 μl) through orbital sinus, using heparinised capillary in tubes containing EDTA which was centrifuged to obtain plasma. The plasma glucose and triglyceride levels were measured spectrometrically, by glucose oxidase and glycerol-3-PO4 oxidase/peroxidase enzyme (Dr. Reddy's Lab. Diagnostic Division Kits, Hyderabad, India) methods respectively.
The blood sugar and triglycerides lowering activities of the test compound was calculated according to the formula given below.
as §1

Series [1] concerns hypercholesterolemic male Sprague Dawley rats. The series can be described thus: Cholesterol lowering activity in hypercholesterolemic male Sprague Dawley rats. The format is in vivo. The conditions noted are these: 3 mg/kg/day oral for 3 days. On the procedure: Male Sprague Dawley rats (NIN stock) were bred in DRF animal house. Animals were maintained under 12 hour light and dark cycle at 25±1° C. Rats of 180-200 gram body weight range were used for the experiment. Animals were made hypercholesterolemic by feeding 2% cholesterol and 1% sodium cholate mixed with standard laboratory chow [National Institute of Nutrition (NMN), Hyderabad, India] for 6 days. Throughout the experimental period the animals were maintained on the same diet (Petit, D., Bonnefis, M. T., Rey, C and Infante, R. Effects of ciprofibrate on liver lipids and lipoprotein synthesis in normo- and hyperlipidemic rats. Atherosclerosis. 1988. 74: 215-225).
The test compounds were administered orally at a dose 0.1 to 30 mg/kg/day for 3 days. Control group was treated with vehicle alone (0.25% Carboxymethylcellulose; dose 10 ml/kg).
The blood samples were collected in fed state 1 hour after drug administration on 0 and 3 day of compound treatment. The blood was collected from the retro-orbital sinus through heparinised capillary in EDTA containing tubes. After centrifugation, plasma sample was separated for total cholesterol, HDL and triglyceride estimations. Measurement of plasma triglyceride, total cholesterol and HDL were done using commercial kits (Dr. Reddy's Laboratory, Diagnostic Division, India). LDL and VLDL cholesterol were calculated from the data obtained for total cholesterol, HDL and triglyceride. The reduction of various parameters examined are calculated according to the formula given below.
as §1
2. LDL and VLDL cholesterol levels were calculated according to the formula: [formula]
VLDL cholesterol in mg/dl=[Total cholesterol−HDL cholesterol−LDL cholesterol] mg/dl.

Each structure is given as a SMILES string.

The term melting point denotes the temperature of the solid-liquid transition.

`CCCc1nn(C)c2c(=O)n(CCOc3ccc(CC(OCC)C(=O)OCC)cc3)c(CC)nc12` (stereo not shown) [Example 1]: in the series with Swiss albino mice, the “Triglyceride (%)↓” value is 45%. On hPPARγ1, this molecule yielded a PPARγ activity of 11.0. Further, at hPPARα, the PPARα activity is listed as 5.00.

`CCCc1nn(C)c2c(=O)n(CCOc3ccc(C[C@@H](OCC)C(=O)N[C@H](CO)c4ccccc4)cc3)c(CC)nc12` [Example 18A, [2R, N(1S)]-2-Ethoxy-3-[4-[2-(5-ethyl-1-methyl-7-oxo-3-propyl-6,7-dihydro-1H-pyrazolo[4,3-d]pyrimidin-6-y]ethoxy]phenyl]-N-(2-hydroxy-1-phenylethyl) Propanamide]: the melting point lay in the range of 138 to 139 °C.

For the molecule `CCCc1nn(C)c2c(=O)n(CCOc3ccc(CC(OCC)C(=O)OCC)cc3)c(C)nc12` (stereo not shown) [Example 3, Ethyl 3-[4-[2-(1,5-Dimethyl-7-oxo-3-propyl-6,7-dihydro-1H-pyrazolo[4,3-d]pyrimidin-6-yl)ethoxy]phenyl]-2-ethoxypropanoate], in the series with Swiss albino mice, the “Triglyceride (%)↓” value was 61%. In addition, in the series on C57BL/KsJ-db/db mice, the “Reduction in Blood Glucose Level (%)” value is given as 58% and the “Triglyceride Lowering (%)” value is recorded as 23%. This molecule had a PPARγ activity at hPPARγ1 of 19.0. At hPPARα, this molecule yielded a PPARα activity of 6.9.

As for `CCCc1nn(C)c2c(=O)n(CCOc3ccc(CC(OCC)C(=O)O)cc3)c(C)nc12` (stereo not shown) [Example 4, 3-[4-[2-(1,5-Dimethyl-7-oxo-3-propyl-6,7-dihydro-1H-pyrazolo[4,3-d]pyrimidin-6-yl)ethoxy]phenyl]-2-ethoxypropanoic Acid], the “Triglyceride (%)↓” value with Swiss albino mice is on record as 66%. In addition, in the series with C57BL/KsJ-db/db mice, the “Reduction in Blood Glucose Level (%)” value is listed as 42% and the “Triglyceride Lowering (%)” value was found to be 17%. The molecule also returned a PPARγ activity on hPPARγ1 of 14.6. At hPPARα, this molecule came in with a PPARα activity of 8.32.

With `CCCc1nn(C)c2c(=O)n(CCOc3ccc(CC(OCC)C(=O)O)cc3)c(CC)nc12` (stereo not shown) [Example 2], in series [1], the “HDL ↓” value is given as 164, the “Total Cholesterol (%)↓” value came to 60% and the “Triglyceride (%)↓” value was 70%. Also, in series [1] (LDL calculated from total cholesterol, HDL and triglyceride), the “LDL (%)↓” value is given as 72%. Moreover, the “VLDL (%)↓” value in series [1] (VLDL calculated from total cholesterol, HDL and LDL) is 71%.

For the molecule `CCCc1nn(C)c2c(=O)n(CCOc3ccc(CC(OCC)C(=O)OCC)cc3)c(CCC)nc12` (stereo not shown) [Example 13, Ethyl 3-[4-[2-(3,5-Dipropyl-1-methyl-7-oxo-6,7-dihydro-1H-pyrazolo[4,3-d]pyrimidin-6-yl)ethoxy]phenyl]-2-ethoxypropanoate], the “Triglyceride (%)↓” value in the series with Swiss albino mice was determined as 25%.

Consider `CCCc1nn(C)c2c(=O)n(CCOc3ccc(CC(Oc4ccccc4)C(=O)O)cc3)c(CC)nc12` (stereo not shown) [Example 10, 3-[4-[2-(5-Ethyl-1-methyl-7-oxo-3-propyl-6,7-dihydro-1H-pyrazolo[4,3-d]pyrimidin-6-yl)ethoxy]phenyl]-2-phenoxypropanoic Acid], for which, in the series on C57BL/KsJ-db/db mice, the “Reduction in Blood Glucose Level (%)” value was 33% and the “Triglyceride Lowering (%)” value was determined as 35%.

The values above are taken from US6444816B1, “Fused 7-oxo-pyrimidinyl compounds, preparation, composition and use thereof” (Dr. Reddy's Research Foundation, priority 1997, dated 2002).
